In patent US20240263147A1, “CARDIAC ORGANOID AND ANTI-ELECTRO-MITOCHONDRIAL DESYNCHRONIZATION THERAPY” (YISSUM RESEARCH DEVELOPMENT COMPANY OF THE HEBREW …, priority 2021, published 2024):
“Also recorded” adds a separate entry of the source.

Experiments:
[1] = tested on: hiPSC-derived vascularized cardiac organoids; test: Beating of vascularized cardiac organoids under pharmaceutical stimulation; format: cell-based, human
Procedure: hiPS-derived cardiomyocytes and microvascular cardiac endothelial cells (VEC Technologies, USA) were counted and mixed in a 2:1 ratio in growth factor reduced Matrigel (BD Biosciences, San Jose, CA) at a cell density of 6.8×10^4 cells per μl. A volume of 1.1 μl of the gel-imbedded mixture (7.48×10^4 cells) was injected into each microwell and left to form spontaneously in RPMI-1640 supplemented with B27 minus insulin and 5 ng/ml vascular endothelial growth factor (VEGF-A, Peprotech) until their spontaneous beating was regained after 6-10 days.
Fast phase-contrast imaging (17 frames per second) was performed at suitable magnification using an LSM-700 Zeiss microscope. The time-lapse micrograph was analyzed using a custom MATLAB® code. Briefly, multiple regions of interest (ROIs) were selected on the cardiac tissue borders, producing a distinct area with changes representative of the cardiac contraction. Dynamic changes in the ROI intensity were measured over time and converted into beating rates using Fast Fourier Transformation (FFT). Contractility was calculated based on the frequency amplitude magnitude.

[2] = tested on: vascularized cardiac organoids; test: Integrated metabolic-electro-mechanical sensor chip: simultaneous contraction, field potential and interstitial oxygen; format: cell-based, human; conditions: for reversal of mitoxantrone-induced arrhythmic behavior: 100 μM metformin concurrent with 10 μM mitoxantrone
[3] = tested on: porcine cardiac tissue
Source text: The tissue was procured post-mortem from a 70 kg domestic female pig that underwent a laparoscopic liver operation (Ethical approval number MD-21-16533-3) and was euthanized using a lethal dose of potassium chloride. […] The lung was retracted, and the pericardium was incised.
The anterior wall of the left ventricle was incised from base to apex and several slices measuring 2-3 mm in length and 1-2 mm thick were obtained using a #10 scalpel blade. Cardiac tissues were further cut into 500±200 μm thick slices and washed thoroughly with 37° C. pre-warmed ex-vivo medium composed of M199 medium, supplemented with 1×insulin-transferrin-selenium (ITS), 10% fetal bovine serum (FBS), and 5 ng/mL vascular endothelial growth factor (VEGF), and 10 mM of 2-[4-(2-hydroxyethyl)piperazin-1-yl]ethanesulfonic acid (HEPES).
The cardiac explants were then embedded with oxygen sensors, placed on the MEAs chip, and transferred to a 37° C. temperature-controlled incubation chamber that contains M199 medium supplemented with 1× ITS, 10% FBS, 5 ng/mL VEGF, and 10 mM HEPES to support long term function, as previously described. The explant was continuously point-stimulated at 2 Hz cycle length. Contraction, field potential, and oxygen were assessed using the integrated metabolic-electro-mechanical sensor chip. […]

[4] = tested on: hiPSC-derived cardiomyocytes; test: Live imaging of mitochondrial calcium (Rhod-2AM) and visual contraction analysis in 2D culture; format: cell-based, human; conditions: n=4
[5] = tested on: vascularized cardiac organoids; test: Integrated metabolic-electro-mechanical sensor chip: simultaneous contraction, field potential and interstitial oxygen; format: cell-based, human
Procedure: The MEA design and printed connections enabled access to 45 different electrodes inside the platform intermittently via a compatible sensor circuit (FIGS. 9A-9B). Spontaneous cardiac field potentials (FPs) were recorded from cardiac organoids using an integrated signal conditioning circuit (AD8232®), with a 2-pole adjustable high-pass filter, 3-pole adjustable low-pass filter, adjustable gain, and medical instrumentation amplifiers to extract, amplify, and filter the extracellular field potential of the organoids remotely within the confined well. […] Spontaneous cardiac field potentials were measured at 100 Hz sampling rate in each microwell. Field potential rhythm frequency was calculated in real-time using a custom-made MATLAB® software imposing Fourier Transformation (FFT) on the evolving kinetic data (FIGS. 9C-9D).
Real-time oxygen measurement was performed based on previously described elements. Briefly, phosphorescent ruthenium microprobes (CPOx-50-RuP) show a decrease in phosphorescence decay time as a function of oxygen concentration, allowing to measure the oxygen content. Controlled sinusoidal modulated 532-nm LED signal excites the embedded oxygen sensors and emits a sinusoidal amplitude-modulated light at 605 nm that is shifted in phase due to oxygen quenching. A phase shift is measured between the emission hardware-filtered first detector (PMT), and a second excitation detector (cPMT). […] Measurements were carried out at a 10 Hz sampling rate. Contraction rate and oxygen rhythm frequency were calculated in real-time using a custom-made MATLAB® software imposing Fourier Transformation (FFT) on the evolving kinetic data. Using custom MATLAB code, we calculated the cardiac organoid contraction rates directly from our oxygen reader based on the emission intensity measured in peak-to-peak voltage from the oxygen bead and its displacement using the second PMT system. Cardiac displacement was measured by the embedded oxygen beads inside the cardiac organoids during a contraction. When the beads move at different distances from the focal point, changes in peak-to-peak voltage occurred leading to the detection of the contraction behavior.
For simultaneous real-time oxygen, contraction rate, and field potential measurements, cardiac organoids were cultured in RPMI supplemented with B27 minus insulin, 5 ng/ml VEGF and 0.1% DMSO (control) or 10 μM KB-R7943 mesylate. Real-time oxygen, contraction rate, and field potential were measured after 0, 15, and 25 minutes of exposure to DMSO (control) or 10 μM KB-R7943 mesylate.

For `CCCCc1oc2ccccc2c1C(=O)c1cc(I)c(OCCN(CC)CC)c(I)c1` [amiodarone], the “decrease of contraction / contraction amplitude” value ([1]; 10 μM amiodarone, n=6) was 28% and the contraction rate ([1]; 10 μM amiodarone, spontaneous beating 66±5 bpm, n=6) was 52±4 bpm.

With `CNC[C@H](O)c1ccc(O)c(O)c1` [epinephrine] the “contraction (beating) rate” value [1] was 88±7 bpm, the “effect on contractility and contraction rate” value [2] was “increases the contractility and contraction rate” and the “effect on mean interstitial oxygen concentration” value [2] was “decreasing the mean interstitial oxygen concentration”. For the same compound, the increase of contraction [2] was 33% and the organoid contraction frequency [2] was 1.95 Hz.

For `O=C1c2c(O)ccc(O)c2C(=O)c2c(NCCNCCO)ccc(NCCNCCO)c21` [mitoxantrone], the “beating frequency (cardiac rhythm)” value ([3]; female, pig, 10 μM) was 2 Hz, the “effect on mechanical contraction, electrical depolarization and oxygen concentration” value ([2]; mitoxantrone exposure (10 μM)) was “markedly decreased” and the contraction rate ([2]; mitoxantrone exposure (10 μM), from 53 BPM) was 79 BPM. For the same compound, the “decrease in mitochondrial calcium” value ([4]; 10 μM mitoxantrone alone) was 79%.

With `CN(C)C(=N)N=C(N)N` [metformin] the beating frequency ([3]; 100 μM metformin concurrent with 10 μM mitoxantrone) was 1.4 Hz, the “reversal of mitoxantrone-induced arrhythmic behavior” value [2] was “reverts the effect, displaying regular heart contraction and field potential; also recorded: reversed this effect” and the “reversal of mitoxantrone-induced arrhythmic behavior” value ([2]; listed as Metformin) was “rescues the arrhythmic cardiac behavior”. The beating rate ([2]; metformin (100 μM) combined with mitoxantrone (10 μM), from 82 BPM) was 61 BPM and the “increase in mean mitochondrial calcium content” value ([4]; 100 μM metformin added to 10 μM mitoxantrone treatment) was 3.4 fold.

With `Cc1ccc2c(c1)C(=O)C1(O)CCN(c3ccccc3)C1=N2` (centres unmarked) [Blebbistatin] the effect on contraction ([2]; 10 μM Blebbistatin) was “inhibits the contraction; also recorded: blocked cardiac contraction” and the “effect on field potential and interstitial oxygen oscillation frequency and intensity” value ([2]; 10 μM Blebbistatin) was “does not affect the FPs or interstitial oxygen oscillations frequency and intensity; also recorded: did not affect the field potential or the oxygen oscillation frequency and intensity”.

`NC1=N[C@H](O)[C@H]2[C@H]3O[C@]4(O)O[C@@H]([C@@H](O)[C@@]2(N1)[C@@H]4O)[C@]3(O)CO` [Tetrodotoxin] was tested, and the “effect on field potential generation, mechanical contraction (and oxygen oscillation)” value [5] was “complete loss of field potential generation and associated mechanical contraction; also recorded: eliminated field potential generation, mechanical contraction, and oxygen oscillation” and the “effect on oxygen oscillation” value [5] was “decayed simultaneously with the field potential”.
